What was measured:
Adenosine receptor A2a = Adenosine receptor A2a (Homo sapiens, UniProt P29274)
[1] = target: T1, Alpha-2A adrenergic receptor (Homo sapiens, UniProt P08913); assay type: functional, cell-based
T1 sequence (P08913 whole entry): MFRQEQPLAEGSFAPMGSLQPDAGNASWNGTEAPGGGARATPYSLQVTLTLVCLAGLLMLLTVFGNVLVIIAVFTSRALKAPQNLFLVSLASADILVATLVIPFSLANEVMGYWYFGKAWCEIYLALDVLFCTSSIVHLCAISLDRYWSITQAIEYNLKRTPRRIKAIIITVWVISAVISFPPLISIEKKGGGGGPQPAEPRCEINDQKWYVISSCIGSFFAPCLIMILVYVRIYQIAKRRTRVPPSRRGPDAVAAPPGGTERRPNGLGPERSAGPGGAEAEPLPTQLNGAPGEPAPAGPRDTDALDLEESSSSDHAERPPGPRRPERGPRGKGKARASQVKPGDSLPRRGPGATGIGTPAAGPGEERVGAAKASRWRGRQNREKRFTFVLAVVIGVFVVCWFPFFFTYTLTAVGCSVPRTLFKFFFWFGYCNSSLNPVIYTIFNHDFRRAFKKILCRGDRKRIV

[2] = target: T2, Alpha-2C adrenergic receptor (Homo sapiens, UniProt P18825); assay type: functional
T2 sequence (P18825 whole entry): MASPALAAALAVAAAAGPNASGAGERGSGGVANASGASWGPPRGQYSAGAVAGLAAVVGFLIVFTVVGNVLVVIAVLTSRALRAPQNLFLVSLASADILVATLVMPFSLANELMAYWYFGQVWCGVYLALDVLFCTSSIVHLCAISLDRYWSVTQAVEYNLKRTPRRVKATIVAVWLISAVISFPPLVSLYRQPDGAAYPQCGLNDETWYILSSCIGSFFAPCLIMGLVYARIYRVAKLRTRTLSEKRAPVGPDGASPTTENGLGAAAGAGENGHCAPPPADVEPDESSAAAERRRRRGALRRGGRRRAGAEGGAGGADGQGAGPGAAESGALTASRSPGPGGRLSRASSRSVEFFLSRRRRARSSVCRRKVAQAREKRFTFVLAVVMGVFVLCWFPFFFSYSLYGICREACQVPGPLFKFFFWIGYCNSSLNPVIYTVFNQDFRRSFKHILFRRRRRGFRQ

[3] = target: T3, Type-1 angiotensin II receptor (Homo sapiens, UniProt P30556)
T3 sequence (P30556 whole entry): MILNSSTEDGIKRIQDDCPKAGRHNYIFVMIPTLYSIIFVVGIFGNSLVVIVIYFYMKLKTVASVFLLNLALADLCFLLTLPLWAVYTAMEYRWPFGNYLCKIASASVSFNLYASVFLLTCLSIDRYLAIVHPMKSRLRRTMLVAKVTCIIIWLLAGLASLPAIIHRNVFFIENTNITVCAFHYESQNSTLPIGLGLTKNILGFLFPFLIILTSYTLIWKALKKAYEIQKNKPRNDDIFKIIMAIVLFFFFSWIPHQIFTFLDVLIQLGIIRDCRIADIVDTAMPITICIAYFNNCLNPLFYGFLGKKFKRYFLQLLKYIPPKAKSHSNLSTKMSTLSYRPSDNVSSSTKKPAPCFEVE

[4] = target: Neuronal acetylcholine receptor subunit alpha-4 (Homo sapiens, UniProt P43681)
[5] = target: Gamma-aminobutyric acid receptor subunit alpha-1 (Rattus norvegicus, UniProt P62813); assay type: functional
Sequence of Gamma-aminobutyric acid receptor subunit alpha-1 (P62813 whole entry): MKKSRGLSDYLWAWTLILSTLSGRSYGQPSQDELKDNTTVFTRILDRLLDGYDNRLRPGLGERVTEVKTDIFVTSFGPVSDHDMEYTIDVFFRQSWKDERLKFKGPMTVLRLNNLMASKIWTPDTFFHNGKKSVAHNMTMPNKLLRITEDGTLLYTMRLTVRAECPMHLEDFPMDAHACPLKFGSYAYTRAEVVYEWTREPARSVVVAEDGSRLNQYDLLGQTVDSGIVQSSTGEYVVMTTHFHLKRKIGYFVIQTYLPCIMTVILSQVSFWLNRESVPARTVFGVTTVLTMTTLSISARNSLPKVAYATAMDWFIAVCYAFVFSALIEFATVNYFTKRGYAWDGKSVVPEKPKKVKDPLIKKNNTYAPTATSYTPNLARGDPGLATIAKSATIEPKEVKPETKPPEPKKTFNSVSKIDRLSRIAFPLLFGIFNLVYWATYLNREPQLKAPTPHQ

[6] = target: 5-hydroxytryptamine receptor 2B (Homo sapiens, UniProt P41595); assay type: functional, cell-based
Sequence of 5-hydroxytryptamine receptor 2B (P41595 whole entry): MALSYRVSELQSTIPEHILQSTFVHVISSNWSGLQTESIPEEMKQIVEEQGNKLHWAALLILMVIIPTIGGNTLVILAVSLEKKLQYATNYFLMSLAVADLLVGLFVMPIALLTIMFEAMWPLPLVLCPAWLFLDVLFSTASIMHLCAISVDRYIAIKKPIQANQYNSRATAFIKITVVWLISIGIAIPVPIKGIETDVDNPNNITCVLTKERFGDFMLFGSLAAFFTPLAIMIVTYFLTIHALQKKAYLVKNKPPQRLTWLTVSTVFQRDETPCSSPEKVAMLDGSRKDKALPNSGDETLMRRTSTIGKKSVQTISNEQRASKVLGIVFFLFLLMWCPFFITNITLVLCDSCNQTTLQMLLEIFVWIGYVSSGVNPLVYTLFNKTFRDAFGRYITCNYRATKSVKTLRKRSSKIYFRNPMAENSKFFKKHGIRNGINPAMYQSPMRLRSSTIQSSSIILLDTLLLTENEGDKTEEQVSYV

[7] = target: T4, 5-hydroxytryptamine receptor 3A (Homo sapiens, UniProt P46098); assay type: functional
T4 sequence (P46098 whole entry): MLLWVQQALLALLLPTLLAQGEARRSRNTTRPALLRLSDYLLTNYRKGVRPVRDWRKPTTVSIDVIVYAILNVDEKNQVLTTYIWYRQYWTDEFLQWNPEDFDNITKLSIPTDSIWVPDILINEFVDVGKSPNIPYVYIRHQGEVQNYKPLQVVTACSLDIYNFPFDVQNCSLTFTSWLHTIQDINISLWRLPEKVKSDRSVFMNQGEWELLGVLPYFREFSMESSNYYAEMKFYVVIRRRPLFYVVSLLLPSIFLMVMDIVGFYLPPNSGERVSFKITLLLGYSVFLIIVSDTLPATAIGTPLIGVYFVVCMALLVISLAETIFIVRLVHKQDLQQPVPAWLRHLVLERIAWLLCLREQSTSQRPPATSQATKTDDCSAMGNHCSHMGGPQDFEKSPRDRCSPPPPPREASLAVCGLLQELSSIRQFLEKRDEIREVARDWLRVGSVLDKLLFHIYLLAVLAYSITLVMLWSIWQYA

[8] = target: Voltage-gated inwardly rectifying potassium channel KCNH2 (Homo sapiens, UniProt Q12809); assay type: functional; details: read-out: AC50
Sequence of Voltage-gated inwardly rectifying potassium channel KCNH2 (Q12809 whole entry): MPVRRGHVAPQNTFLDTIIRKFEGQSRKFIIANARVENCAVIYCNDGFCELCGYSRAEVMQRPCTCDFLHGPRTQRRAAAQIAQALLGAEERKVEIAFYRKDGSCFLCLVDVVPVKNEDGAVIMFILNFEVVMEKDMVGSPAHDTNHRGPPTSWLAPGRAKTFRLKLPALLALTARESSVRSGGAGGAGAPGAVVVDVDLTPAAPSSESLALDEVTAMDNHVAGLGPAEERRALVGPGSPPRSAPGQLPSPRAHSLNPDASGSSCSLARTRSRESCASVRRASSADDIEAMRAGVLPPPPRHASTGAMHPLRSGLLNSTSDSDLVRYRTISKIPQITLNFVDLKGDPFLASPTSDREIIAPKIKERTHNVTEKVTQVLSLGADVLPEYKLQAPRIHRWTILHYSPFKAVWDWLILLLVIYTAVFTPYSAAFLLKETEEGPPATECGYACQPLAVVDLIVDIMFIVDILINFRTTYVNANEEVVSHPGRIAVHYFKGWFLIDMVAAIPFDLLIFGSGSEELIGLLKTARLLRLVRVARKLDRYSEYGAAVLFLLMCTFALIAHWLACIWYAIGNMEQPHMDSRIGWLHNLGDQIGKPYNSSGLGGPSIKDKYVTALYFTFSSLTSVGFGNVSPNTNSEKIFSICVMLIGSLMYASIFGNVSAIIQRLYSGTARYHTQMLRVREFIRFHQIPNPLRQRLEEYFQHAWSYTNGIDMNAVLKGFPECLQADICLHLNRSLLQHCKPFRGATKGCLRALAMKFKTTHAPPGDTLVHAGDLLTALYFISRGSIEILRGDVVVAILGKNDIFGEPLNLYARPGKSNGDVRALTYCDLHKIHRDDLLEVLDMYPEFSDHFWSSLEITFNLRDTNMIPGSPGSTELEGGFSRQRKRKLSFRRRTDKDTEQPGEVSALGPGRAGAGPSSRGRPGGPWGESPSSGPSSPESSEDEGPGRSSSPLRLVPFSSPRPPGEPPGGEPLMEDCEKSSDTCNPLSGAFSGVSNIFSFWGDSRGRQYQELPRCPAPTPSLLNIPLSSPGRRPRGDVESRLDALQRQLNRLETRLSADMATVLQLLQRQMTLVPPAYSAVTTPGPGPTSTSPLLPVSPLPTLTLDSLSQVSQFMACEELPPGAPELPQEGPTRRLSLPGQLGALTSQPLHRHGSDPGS

Melanocortin receptor 3 = Melanocortin receptor 3 (Homo sapiens, UniProt P41968)
Sequence of Melanocortin receptor 3 (P41968 whole entry): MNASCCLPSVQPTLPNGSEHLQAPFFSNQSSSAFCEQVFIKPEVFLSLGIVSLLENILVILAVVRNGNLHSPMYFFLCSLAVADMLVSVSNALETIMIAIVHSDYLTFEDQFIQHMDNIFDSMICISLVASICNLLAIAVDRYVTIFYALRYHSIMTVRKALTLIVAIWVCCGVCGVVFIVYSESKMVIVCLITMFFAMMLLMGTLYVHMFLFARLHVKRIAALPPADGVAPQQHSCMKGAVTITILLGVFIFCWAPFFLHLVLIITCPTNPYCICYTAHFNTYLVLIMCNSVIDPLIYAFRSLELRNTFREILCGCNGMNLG

Motilin receptor = Motilin receptor (Homo sapiens, UniProt O43193)
Sequence of Motilin receptor (O43193 whole entry): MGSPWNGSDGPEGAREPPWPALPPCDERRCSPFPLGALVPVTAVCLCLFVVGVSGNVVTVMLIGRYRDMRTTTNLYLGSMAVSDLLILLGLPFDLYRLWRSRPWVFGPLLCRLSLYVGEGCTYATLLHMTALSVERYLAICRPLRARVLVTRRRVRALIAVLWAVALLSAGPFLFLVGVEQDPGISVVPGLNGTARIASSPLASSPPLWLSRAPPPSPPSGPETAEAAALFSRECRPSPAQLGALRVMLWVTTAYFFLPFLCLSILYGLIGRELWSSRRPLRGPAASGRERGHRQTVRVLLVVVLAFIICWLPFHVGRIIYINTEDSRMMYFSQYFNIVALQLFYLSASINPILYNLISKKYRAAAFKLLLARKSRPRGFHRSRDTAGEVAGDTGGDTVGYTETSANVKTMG

[9] = target: 3',5'-cyclic-AMP phosphodiesterase 4D (Homo sapiens, UniProt Q08499); assay type: functional
[10] = target: T5, Equilibrative nucleoside transporter 1 (Homo sapiens, UniProt Q99808)
T5 sequence (Q99808 whole entry): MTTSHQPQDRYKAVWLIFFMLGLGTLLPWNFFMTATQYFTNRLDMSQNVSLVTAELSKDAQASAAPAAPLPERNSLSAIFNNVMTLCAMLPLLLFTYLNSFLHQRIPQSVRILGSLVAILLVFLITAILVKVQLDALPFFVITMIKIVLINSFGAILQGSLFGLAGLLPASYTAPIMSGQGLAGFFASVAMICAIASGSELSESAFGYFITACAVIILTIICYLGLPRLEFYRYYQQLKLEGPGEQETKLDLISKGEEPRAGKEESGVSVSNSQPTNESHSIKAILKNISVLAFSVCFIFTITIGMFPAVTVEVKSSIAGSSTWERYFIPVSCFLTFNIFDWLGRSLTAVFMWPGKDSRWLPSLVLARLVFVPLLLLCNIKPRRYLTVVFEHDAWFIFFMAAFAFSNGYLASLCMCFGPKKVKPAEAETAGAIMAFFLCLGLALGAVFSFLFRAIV

[11] = target: cGMP-inhibited 3',5'-cyclic phosphodiesterase 3A (Homo sapiens, UniProt Q14432); assay type: functional
Sequence of cGMP-inhibited 3',5'-cyclic phosphodiesterase 3A (Q14432 whole entry): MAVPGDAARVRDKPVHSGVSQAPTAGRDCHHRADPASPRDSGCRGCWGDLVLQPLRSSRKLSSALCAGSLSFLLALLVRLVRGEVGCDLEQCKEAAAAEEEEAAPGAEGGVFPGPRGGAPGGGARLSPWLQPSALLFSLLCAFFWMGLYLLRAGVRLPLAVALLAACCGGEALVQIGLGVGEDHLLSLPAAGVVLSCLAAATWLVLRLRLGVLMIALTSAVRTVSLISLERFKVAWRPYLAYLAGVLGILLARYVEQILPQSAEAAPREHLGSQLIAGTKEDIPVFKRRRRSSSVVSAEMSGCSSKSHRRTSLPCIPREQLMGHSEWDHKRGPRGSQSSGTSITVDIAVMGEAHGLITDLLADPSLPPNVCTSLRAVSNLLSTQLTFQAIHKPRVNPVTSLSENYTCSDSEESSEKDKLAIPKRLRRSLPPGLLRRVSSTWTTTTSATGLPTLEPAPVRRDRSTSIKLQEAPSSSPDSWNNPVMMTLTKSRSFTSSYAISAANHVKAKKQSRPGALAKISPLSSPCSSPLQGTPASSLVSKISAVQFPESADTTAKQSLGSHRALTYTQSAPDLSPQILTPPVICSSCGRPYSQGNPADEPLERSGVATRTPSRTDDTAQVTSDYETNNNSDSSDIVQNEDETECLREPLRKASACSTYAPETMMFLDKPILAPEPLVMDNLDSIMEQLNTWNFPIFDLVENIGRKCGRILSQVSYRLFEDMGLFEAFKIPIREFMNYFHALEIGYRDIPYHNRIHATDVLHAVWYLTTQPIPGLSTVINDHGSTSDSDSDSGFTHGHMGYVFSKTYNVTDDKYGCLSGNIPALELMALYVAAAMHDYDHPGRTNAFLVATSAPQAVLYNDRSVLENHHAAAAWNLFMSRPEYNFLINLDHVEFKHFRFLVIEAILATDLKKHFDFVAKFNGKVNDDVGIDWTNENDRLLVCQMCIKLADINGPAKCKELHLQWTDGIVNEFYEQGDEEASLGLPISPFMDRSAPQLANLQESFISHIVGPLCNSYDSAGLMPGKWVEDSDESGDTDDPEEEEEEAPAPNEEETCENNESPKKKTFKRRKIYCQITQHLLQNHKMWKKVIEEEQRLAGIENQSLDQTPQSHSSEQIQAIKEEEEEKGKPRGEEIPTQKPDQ

D(3) dopamine receptor = D(3) dopamine receptor (Homo sapiens, UniProt P35462)
Sequence of D(3) dopamine receptor (P35462 whole entry): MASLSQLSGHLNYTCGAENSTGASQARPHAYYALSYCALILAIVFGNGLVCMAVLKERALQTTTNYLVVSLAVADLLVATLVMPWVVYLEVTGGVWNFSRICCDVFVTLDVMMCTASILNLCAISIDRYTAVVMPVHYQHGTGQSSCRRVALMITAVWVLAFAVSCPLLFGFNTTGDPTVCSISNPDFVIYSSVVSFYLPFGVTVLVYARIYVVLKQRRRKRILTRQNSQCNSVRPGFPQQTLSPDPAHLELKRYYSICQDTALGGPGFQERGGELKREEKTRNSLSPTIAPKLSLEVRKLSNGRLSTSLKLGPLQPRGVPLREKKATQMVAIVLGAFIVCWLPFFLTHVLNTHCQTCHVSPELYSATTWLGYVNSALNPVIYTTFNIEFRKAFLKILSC

[12] = target: Sodium-dependent noradrenaline transporter (Homo sapiens, UniProt P23975)
Note: assay procedure not described here.

Sequence of Adenosine receptor A2a (P29274 whole entry): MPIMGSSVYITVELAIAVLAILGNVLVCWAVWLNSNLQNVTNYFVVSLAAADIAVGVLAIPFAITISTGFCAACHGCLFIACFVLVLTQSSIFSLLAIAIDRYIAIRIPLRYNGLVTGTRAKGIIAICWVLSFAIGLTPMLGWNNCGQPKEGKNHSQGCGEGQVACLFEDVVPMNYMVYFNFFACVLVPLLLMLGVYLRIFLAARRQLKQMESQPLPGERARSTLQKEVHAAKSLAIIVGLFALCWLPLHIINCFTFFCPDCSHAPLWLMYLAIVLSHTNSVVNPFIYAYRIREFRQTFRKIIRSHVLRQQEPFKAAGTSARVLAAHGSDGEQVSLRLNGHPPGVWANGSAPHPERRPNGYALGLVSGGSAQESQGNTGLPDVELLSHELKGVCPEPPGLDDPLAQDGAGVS

CC(N)Cc1ccccc1 (stereo not given) [AMPHETAMINE]
AC50 (Adenosine receptor A2a): 11 µM
AC50 [1]: > 30 µM
AC50 [2]: > 30 µM
AC50 [3]: > 30 µM
AC50 [4]: > 30 µM
AC50 [5]: > 30 µM
AC50 [6]: > 30 µM
AC50 [7]: > 30 µM
AC50 [8]: > 30 µM
AC50 (Melanocortin receptor 3): > 30 µM
AC50 (Motilin receptor): > 30 µM
AC50 [9]: > 30 µM
AC50 [10]: > 30 µM
AC50 [11]: > 30 µM
AC50 (D(3) dopamine receptor): > 30 µM

O=C1c2c(O)c(=O)ccn2N([C@@H]2c3ccccc3SCc3c2ccc(F)c3F)[C@@H]2COCCN12 [BALOXAVIR]
AC50 [8]: > 30 µM

CCO/N=C(\C(=O)N[C@@H]1C(=O)N2C(C(=O)[O-])=C(Sc3nc(-c4cc[n+](C)cc4)cs3)CS[C@H]12)c1nsc(N)n1 [CEFTAROLINE]
AC50 [8]: 26 µM

Cc1cc(O)cc(C)c1Cl [CHLOROXYLENOL]
AC50 [8]: > 30 µM

CN(C)CCCN1c2ccccc2CCc2ccc(Cl)cc21 [CLOMIPRAMINE]
AC50 [1]: > 10 µM
AC50 [4]: > 10 µM
AC50 [5]: > 10 µM
AC50 [6]: > 10 µM
AC50 [7]: > 30 µM
AC50 (D(3) dopamine receptor): 0.3 µM

CC(=O)OCC(=O)[C@@]1(O)CC[C@H]2[C@@H]3CCC4=CC(=O)CC[C@]4(C)[C@H]3C(=O)C[C@@]21C [CORTISONE ACETATE]
AC50 [2]: > 30 µM
AC50 [5]: > 30 µM
AC50 [6]: > 30 µM
AC50 [7]: > 30 µM
AC50 [9]: > 30 µM

C[N+](C)(C)CCCCCCCCCC[N+](C)(C)C [DECAMETHONIUM]
AC50 [8]: > 30 µM

O=C1c2ccccc2C(=O)C1C(=O)C(c1ccccc1)c1ccccc1 [DIPHENADIONE]
AC50 [8]: > 30 µM

C#C[C@]1(O)CC[C@H]2[C@@H]3CCc4cc(O)ccc4[C@H]3CC[C@@]21C [ETHINYL ESTRADIOL]
AC50 (Adenosine receptor A2a): > 30 µM
AC50 [1]: > 10 µM
AC50 [2]: > 10 µM
AC50 [3]: > 30 µM
AC50 [5]: > 10 µM
AC50 [6]: > 10 µM
AC50 [7]: > 30 µM
AC50 [8]: > 30 µM
AC50 (Melanocortin receptor 3): > 30 µM
AC50 (Motilin receptor): > 10 µM
AC50 [9]: 16 µM
AC50 [10]: > 30 µM
AC50 [11]: 16 µM
AC50 (D(3) dopamine receptor): > 10 µM

CCOC(=O)c1ccc(O)cc1 [ETHYLPARABEN]
AC50 [8]: > 30 µM

O=C1[C@H](CC[C@H](O)c2ccc(F)cc2)[C@@H](c2ccc(O)cc2)N1c1ccc(F)cc1 [EZETIMIBE]
AC50 [8]: 16 µM

NC(N)=Nc1nc(CSCCC(N)=NS(N)(=O)=O)cs1 [FAMOTIDINE]
AC50 (Adenosine receptor A2a): > 30 µM
AC50 [1]: > 10 µM
AC50 [2]: > 10 µM
AC50 [3]: > 30 µM
AC50 [5]: > 10 µM
AC50 [6]: > 10 µM
AC50 [7]: > 10 µM
AC50 (Melanocortin receptor 3): > 30 µM
AC50 (Motilin receptor): > 10 µM
AC50 [9]: > 10 µM
AC50 [10]: > 30 µM
AC50 [12]: > 10 µM
AC50 [11]: > 10 µM
AC50 (D(3) dopamine receptor): > 10 µM

O=C(COc1ccc(Cl)cc1)N1CCN(Cc2ccc3c(c2)OCO3)CC1 [FIPEXIDE]
AC50 [8]: 12 µM

Cc1c(-c2ccccc2)oc2c(C(=O)OCCN3CCCCC3)cccc2c1=O [FLAVOXATE]
AC50 [8]: 3.8 µM

CCC(=O)c1c(O)cc(O)cc1O [FLOPROPIONE]
AC50 [8]: > 30 µM

CC1(C)O[C@@H]2C[C@H]3[C@@H]4C[C@H](F)C5=CC(=O)CC[C@]5(C)[C@H]4[C@@H](O)C[C@]3(C)[C@]2(C(=O)CO)O1 [FLURANDRENOLIDE]
AC50 [8]: > 30 µM

C#C[C@]1(O)CC[C@H]2[C@@H]3CCC4=CC(=O)CC[C@@H]4[C@H]3CC[C@@]21CC [LEVONORGESTREL]
AC50 [8]: > 30 µM

CN1CCCC(CN2c3ccccc3Sc3ccccc32)C1 (stereo not given) [MEPAZINE]
AC50 [8]: 3.77 µM

Sc1ncnc2nc[nH]c12 [MERCAPTOPURINE ANHYDROUS]
AC50 [8]: > 30 µM

C[N+]1(C)[C@@H]2C[C@@H](OC(=O)[C@H](CO)c3ccccc3)C[C@H]1[C@@H]1O[C@@H]12 [METHSCOPOLAMINE]
AC50 [8]: > 30 µM

CC(=O)Oc1c(C)cc(OCC(O)CNC(C)C)c(C)c1C (stereo not given) [METIPRANOLOL]
AC50 [8]: > 30 µM

O=C1CC[C@@]2(O)[C@H]3Cc4ccc(O)c5c4[C@@]2(CCN3CC2CC2)[C@H]1O5 [NALTREXONE]
AC50 [8]: > 30 µM

CCc1nn(CCCN2CCN(c3cccc(Cl)c3)CC2)c(=O)n1CCOc1ccccc1 [NEFAZODONE]
AC50 (Adenosine receptor A2a): > 30 µM
AC50 [2]: 0.63 µM
AC50 [3]: > 30 µM
AC50 [5]: > 10 µM
AC50 [6]: > 10 µM
AC50 [7]: > 10 µM
AC50 [8]: 0.89 µM
AC50 (Melanocortin receptor 3): > 30 µM
AC50 (Motilin receptor): > 10 µM
AC50 [9]: > 10 µM
AC50 [10]: 19.2 µM
AC50 [11]: > 10 µM
AC50 (D(3) dopamine receptor): 1.2 µM

CC(N/C(=N\C#N)Nc1ccncc1)C(C)(C)C (stereo not given) [PINACIDIL ANHYDROUS]
AC50 [8]: > 30 µM

CC(O)CO (stereo not given) [PROPYLENE GLYCOL]
AC50 [8]: > 30 µM

O=C(NC[C@H]1CN(c2ccc(N3CCOCC3=O)cc2)C(=O)O1)c1ccc(Cl)s1 [RIVAROXABAN]
AC50 [1]: > 30 µM
AC50 [2]: > 30 µM
AC50 [5]: > 30 µM
AC50 [6]: > 30 µM
AC50 [7]: > 30 µM
AC50 (Melanocortin receptor 3): > 30 µM
AC50 [9]: > 30 µM
AC50 [12]: > 30 µM
AC50 [11]: > 30 µM
AC50 (D(3) dopamine receptor): > 30 µM

CC(C)OC(=O)[C@H](C)N[P@](=O)(OC[C@H]1O[C@@H](n2ccc(=O)[nH]c2=O)[C@](C)(F)[C@@H]1O)Oc1ccccc1 [SOFOSBUVIR]
AC50 [8]: > 30 µM

Cc1ccc(O)c2ncccc12 [TILIQUINOL]
AC50 [8]: > 30 µM

CC(=O)OC[C@H]1O[C@@H](n2ccc(=O)[nH]c2=O)[C@H](OC(C)=O)[C@@H]1OC(C)=O [URIDINE TRIACETATE]
AC50 [8]: > 30 µM

CCOC(=O)N[C@@H]1CC[C@@H]2[C@@H](C1)C[C@H]1C(=O)O[C@H](C)[C@H]1[C@H]2/C=C/c1ccc(-c2cccc(F)c2)cn1 [VORAPAXAR]
AC50 [8]: 3.9 µM

From ChEMBL document CHEMBL5291721, “A preclinical secondary pharmacology resource illuminates target-adverse drug reaction associations of marketed drugs” (Nat Commun, 2023)
